Blank lines part the entries; values can stand above or below the compound they belong to.
Legend:
[1] = system: Mus musculus; assay: Inhibition of FAAH in mouse liver at 30 mg/kg, po after 1 hr; assay type: functional; settings: values are per cent of control
[2] = system: Mus musculus; assay: Inhibition of FAAH in mouse brain at 30 mg/kg, po after 1 hr; assay type: functional; settings: values are per cent of control
[3] = target: T1, Fatty-acid amide hydrolase 1 (Homo sapiens, UniProt O00519); assay: Inhibition of FAAH (unknown origin)
T1 sequence (O00519 whole entry): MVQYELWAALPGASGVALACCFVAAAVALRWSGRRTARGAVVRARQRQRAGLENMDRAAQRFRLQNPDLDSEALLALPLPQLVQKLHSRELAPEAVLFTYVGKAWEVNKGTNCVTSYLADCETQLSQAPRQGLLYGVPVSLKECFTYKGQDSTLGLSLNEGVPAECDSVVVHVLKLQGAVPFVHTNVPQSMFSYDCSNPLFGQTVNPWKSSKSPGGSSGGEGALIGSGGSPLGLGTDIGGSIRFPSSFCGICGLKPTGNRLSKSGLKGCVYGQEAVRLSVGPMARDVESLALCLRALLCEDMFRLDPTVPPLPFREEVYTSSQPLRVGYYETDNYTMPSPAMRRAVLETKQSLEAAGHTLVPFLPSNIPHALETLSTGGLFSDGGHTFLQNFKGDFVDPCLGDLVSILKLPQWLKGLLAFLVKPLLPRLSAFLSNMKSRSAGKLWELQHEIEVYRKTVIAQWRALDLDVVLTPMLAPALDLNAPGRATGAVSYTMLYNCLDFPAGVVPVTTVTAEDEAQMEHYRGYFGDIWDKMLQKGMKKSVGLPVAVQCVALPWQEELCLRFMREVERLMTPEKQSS

[4] = target: T2, Fatty-acid amide hydrolase 1 (Rattus norvegicus) (UniProt P97612); assay: Inhibition of FAAH in rat brain homogenates using [3H]-anandamide as substrate assessed as formation of [3H]-ethanolamine at 10 uM relative to control; assay type: tissue-based; settings: values are per cent of control
T2 sequence (whole entry): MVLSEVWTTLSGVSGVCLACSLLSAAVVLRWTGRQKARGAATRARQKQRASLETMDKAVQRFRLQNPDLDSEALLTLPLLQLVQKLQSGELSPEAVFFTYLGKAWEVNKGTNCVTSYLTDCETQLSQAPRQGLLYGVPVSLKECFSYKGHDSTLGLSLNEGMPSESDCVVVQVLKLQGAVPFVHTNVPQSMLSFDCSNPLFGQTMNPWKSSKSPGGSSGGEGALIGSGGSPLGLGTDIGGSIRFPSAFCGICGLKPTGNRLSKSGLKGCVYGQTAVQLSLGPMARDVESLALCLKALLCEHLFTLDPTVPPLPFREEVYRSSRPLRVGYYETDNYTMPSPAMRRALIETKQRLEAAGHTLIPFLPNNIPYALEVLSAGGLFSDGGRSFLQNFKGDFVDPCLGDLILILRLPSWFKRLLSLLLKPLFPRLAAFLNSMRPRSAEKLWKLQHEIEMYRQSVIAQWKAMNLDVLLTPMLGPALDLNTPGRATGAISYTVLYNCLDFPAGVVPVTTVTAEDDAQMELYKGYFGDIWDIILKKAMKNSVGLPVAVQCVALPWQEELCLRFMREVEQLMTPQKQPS

[5] = system: Mus musculus; assay: Inhibition of FAAH in mouse liver at 10 mg/kg, po after 1 hr; assay type: functional; settings: values are per cent of control
[6] = system: Mus musculus; assay: Inhibition of FAAH in mouse liver at 10 mg/kg, po after 4 hrs; assay type: functional; settings: values are per cent of control
[7] = system: Mus musculus; assay: Inhibition of FAAH in mouse liver at 10 mg/kg, po after 8 hrs; assay type: functional; settings: values are per cent of control
[8] = system: Mus musculus; assay: Inhibition of FAAH in mouse liver at 10 mg/kg, po after 24 hrs; assay type: functional; settings: values are per cent of control
[9] = system: Mus musculus; assay: Inhibition of FAAH in mouse brain at 10 mg/kg, po after 1 hr; assay type: functional; settings: values are per cent of control
[10] = system: Mus musculus; assay: Inhibition of FAAH in mouse brain at 10 mg/kg, po after 4 hrs; assay type: functional; settings: values are per cent of control
[11] = system: Mus musculus; assay: Inhibition of FAAH in mouse brain at 10 mg/kg, po after 8 hrs; assay type: functional; settings: values are per cent of control
[12] = system: Mus musculus; assay: Inhibition of FAAH in mouse brain at 10 mg/kg, po after 24 hrs; assay type: functional; settings: values are per cent of control
[13] = system: Mus musculus; assay: Inhibition of FAAH in mouse liver at 30 mg/kg, po after 8 hrs; assay type: functional; settings: values are per cent of control
[14] = system: Mus musculus; assay: Inhibition of FAAH in mouse liver at 30 mg/kg, po after 24 hrs; assay type: functional; settings: values are per cent of control
[15] = system: Mus musculus; assay: Inhibition of FAAH in mouse brain at 30 mg/kg, po after 4 hrs; assay type: functional; settings: values are per cent of control
[16] = system: Mus musculus; assay: Inhibition of FAAH in mouse brain at 30 mg/kg, po after 8 hrs; assay type: functional; settings: values are per cent of control
[17] = system: Mus musculus; assay: Inhibition of FAAH in mouse brain at 30 mg/kg, po after 24 hrs; assay type: functional; settings: values are per cent of control
[18] = system: Mus musculus; assay: Inhibition of FAAH in mouse liver at 30 mg/kg, po after 4 hrs; assay type: functional; settings: values are per cent of control

Compound: O=c1oc(Oc2ccccc2)nn1-c1cccc(O)c1
residual activity at 30 mg/kg [1]: 33%
residual activity at 30 mg/kg [2]: 95%

Compound: COc1nn(-c2ccc(Oc3ccccc3)cc2)c(=O)o1
IC50 [3]: 6.1 nM

Compound: O=c1oc(Oc2ccc(Cl)cc2)nn1-c1ccc(O)cc1
residual activity at 30 mg/kg [1]: 20%
residual activity at 30 mg/kg [2]: 38%

residual activity [4]: 97%
Compound: O=c1oc(Cc2ccccc2)nn1-c1ccccc1

Compound: O=c1oc(Oc2ccccc2)nn1-c1ccc(F)cc1F
residual activity at 30 mg/kg [1]: 65%
residual activity at 30 mg/kg [2]: 86%

Compound: O=c1oc(Oc2ccc(F)cc2)nn1-c1cccc(O)c1
residual activity at 30 mg/kg [1]: 24%
residual activity at 30 mg/kg [2]: 99%

Compound: O=c1oc(Oc2ccc(Cl)cc2)nn1-c1cccc(O)c1
residual activity at 30 mg/kg [1]: 10%
residual activity at 30 mg/kg [2]: 100%

Compound: O=c1oc(Oc2ccccc2)nn1-c1ccccc1F
residual activity at 30 mg/kg [1]: 72%

Compound: O=c1oc(Oc2ccc(F)cc2F)nn1-c1ccccc1
residual activity at 30 mg/kg [1]: 39%
residual activity at 30 mg/kg [2]: 94%

residual activity [4]: 5%
Compound: COc1nn(-c2cccc(Cl)c2)c(=O)o1

Compound: O=c1oc(Oc2ccc(F)cc2F)nn1-c1ccc(O)c(O)c1
residual activity at 30 mg/kg [1]: 4%
residual activity at 30 mg/kg [2]: 66%
residual activity at 10 mg/kg [5]: 6%
residual activity at 10 mg/kg [6]: 18%
residual activity at 10 mg/kg [7]: 27%
residual activity at 10 mg/kg [8]: 79%
residual activity at 10 mg/kg [9]: 102%
residual activity at 10 mg/kg [10]: 100%
residual activity at 10 mg/kg [11]: 103%
residual activity at 10 mg/kg [12]: 104%

residual activity [4]: 110%
Compound: O=c1oc(-c2ccccc2)nn1-c1ccccc1

residual activity [4]: 86%
Compound: O=c1oc(OCc2ccccc2)nn1Cc1ccccc1

Compound: O=c1oc(Oc2ccccc2)nn1-c1ccc(O)cc1
residual activity at 30 mg/kg [1]: 46%
residual activity at 30 mg/kg [2]: 97%

Compound: O=c1oc(Oc2ccc([N+](=O)[O-])cc2)nn1-c1ccc(O)cc1
residual activity at 30 mg/kg [1]: 45%
residual activity at 30 mg/kg [2]: 96%

Compound: O=c1oc(Oc2ccc(F)cc2F)nn1-c1ccc(O)cc1
residual activity at 30 mg/kg [1]: 12%
residual activity at 30 mg/kg [2]: 86%

residual activity [4]: 104%
Compound: O=c1oc(N2CCOCC2)nn1-c1cccc(Cl)c1

Compound: O=c1oc(Oc2ccc(Cl)cc2)nn1-c1ccc(O)cc1F
residual activity at 30 mg/kg [1]: 4%
residual activity at 30 mg/kg [2]: 64%
residual activity at 30 mg/kg [13]: 7%
residual activity at 30 mg/kg [14]: 79%
residual activity at 30 mg/kg [15]: 34%
residual activity at 30 mg/kg [16]: 57%
residual activity at 30 mg/kg [17]: 80%

Compound: O=c1oc(Oc2ccc(Cl)cc2)nn1-c1ccc(O)c(O)c1
residual activity at 30 mg/kg [1]: 5%
residual activity at 30 mg/kg [2]: 83%
residual activity at 10 mg/kg [5]: 10%
residual activity at 10 mg/kg [6]: 17%
residual activity at 10 mg/kg [7]: 38%
residual activity at 10 mg/kg [8]: 91%
residual activity at 10 mg/kg [9]: 99%
residual activity at 10 mg/kg [10]: 90%
residual activity at 10 mg/kg [11]: 96%
residual activity at 10 mg/kg [12]: 102%

Compound: O=c1oc(Oc2ccc(Cl)cc2Cl)nn1-c1ccc(O)cc1
residual activity at 30 mg/kg [1]: 9%
residual activity at 30 mg/kg [2]: 59%
residual activity at 30 mg/kg [18]: 18%
residual activity at 30 mg/kg [13]: 11%
residual activity at 30 mg/kg [14]: 103%
residual activity at 30 mg/kg [15]: 72%
residual activity at 30 mg/kg [16]: 52%
residual activity at 30 mg/kg [17]: 99%

residual activity [4]: 84%
Compound: O=C(c1ccccc1)c1nn(-c2ccccc2)c(=O)o1

Compound: COc1cc(Br)ccc1Oc1nn(-c2ccccc2)c(=O)o1
residual activity at 30 mg/kg [1]: 83%
residual activity at 30 mg/kg [2]: 101%

Compound: O=c1oc(Oc2ccc(F)cc2F)nn1-c1cccc(O)c1
residual activity at 30 mg/kg [1]: 12%
residual activity at 30 mg/kg [2]: 94%

Compound: O=c1oc(Oc2ccc(F)cc2)nn1-c1ccc(O)cc1
residual activity at 30 mg/kg [1]: 30%
residual activity at 30 mg/kg [2]: 82%

Compound: O=c1oc(Oc2ccc(Cl)cc2)nn1-c1ccccc1
residual activity at 30 mg/kg [1]: 81%
residual activity at 30 mg/kg [2]: 110%

Compound: O=c1oc(Oc2ccccc2F)nn1-c1ccc(O)cc1
residual activity at 30 mg/kg [1]: 44%
residual activity at 30 mg/kg [2]: 94%

Compound: COc1ccc(Oc2nn(-c3ccccc3)c(=O)o2)cc1
residual activity at 30 mg/kg [1]: 94%
residual activity at 30 mg/kg [2]: 108%
